The values that follow come from patent US20100062067A1, “COMPOSITIONS COMPRISING MACROMOLECULAR ASSEMBLIES OF LIPID AND SURFACTANT” (MALVERN COSMECEUTICS LIMITED, priority 2006, published 2010).

Data set [1] is described as follows: Visual clarity of surfactant/lipid mixtures in water (Comparative Example 1). Format: physicochemical. The protocol: The appropriate quantity of lipid and surfactant was added to water, which was then warmed to approximately 50° C. and stirred until a uniform emulsion was formed. The mixture was then homogenised for 10 minutes. Percentage values specified in this experiment refer to the weight of the component in question as a proportion of the total weight of the composition. Once the mixtures were prepared they were visually examined to determine whether the surfactant component had solubilized the lipid component in the aqueous medium. The clarity of a mixture was categorized as being clear if there was no significant visible opacity to the naked eye, whereas a mixture was categorized as cloudy if there was significant visible disruption to the passage of light.

A short description of data set [2]: Clarity and turbidity of surfactant/active agent mixtures in water (Comparative Example 2). The class given is physicochemical. The settings on record: surfactant 5% w/w + TECA 0.5% w/w in water, visual.
Description: The appropriate quantity of surfactant and active agent was added to water, which was then warmed to approximately 50° C. and stirred. The mixture was then homogenised for 10 minutes. Percentage values specified in this experiment refer to the weight of the component in question as a proportion of the total weight of the composition. Once the mixtures were prepared they were visually examined to determine whether the surfactant component had solubilized the active agent in the aqueous medium. The clarity of a mixture was categorized as being clear if there was no significant visible opacity to the naked eye, whereas a mixture was categorized as cloudy if there was significant visible disruption to the passage of light. For a quantitative analysis of the clarity of aqueous solutions of surfactant and active, certain samples were examined using a turbidity meter ([…] , from Hach-Lange). The turbidity meter was calibrated prior to use, with two known standards (0 and 40 FNU).
A short description of data set [3]: Turbidity of surfactant/lipid compositions, formation of macromolecular complexes (Example 1). The conditions noted are these: 2.5% surfactant, 1% 90H lipid, ca. 0.01% S LPC co-surfactant (as 0.05% SL 80-3) in water, room temperature. Format: physicochemical. The protocol:
Briefly, to the appropriate volume of warm water (ca. 60° C.), SL 80-3 was added. […] 90H was then added gradually, with heating and stirring maintained throughout and for a further 45 minutes after completion.
After mixing the solution was stirred and heated to around 60-70° C.
The required quantity of warm lipid emulsion was slowly added to the warm surfactant solution while stirring with the temperature maintained.

The conditions of data set [4]: rough average of manufacturer and literature values; cited from earlier work.

As to `CCCCCCCCCCCCOS(=O)(=O)[O-].[Na+]` [SDS, Sodium dodecyl sulphate], the Clarity result is given as “Cloudy” in data set [1] (surfactant 2.5% w/w + lipid 90H 1.0% w/w in water), “Clear” in data set [1] (surfactant 5.0% w/w + lipid 90H 1.0% w/w in water) and “Cloudy” in data set [2]. Further, the “Average Turbidity” value in data set [3] was determined as 26.2 FNU. Besides, the “Average HLB” value in data set [4] is listed as 40.
